Numbers after ± are expanded uncertainties.

Data on one molecule can be found in the NIST ThermoML archive (doi:10.1016/j.fluid.2015.03.036).

A short description of series [1]: Solid-liquid equilibrium temperature. Particulars: 100 kPa; Crystal; DTA.
Series [2] is described as follows: Molar enthalpy of transition or fusion. Particulars: Crystal; DSC.

On to `O=P(Nc1ccccc1)(Oc1ccccc1)Oc1ccccc1` [diphenyl anilinophosphonate], for which the Solid-liquid equilibrium temperature in series [1] is listed as 406.91 ± 0.32 K. For the same molecule, the “Molar enthalpy of transition or fusion” value in series [2] was found to be 0.0171 ± 0.0406 kcal/mol.
